The source of these data is patent US20090311217A1, “3-SUBSTITUTED-1H-INDOLE COMPOUNDS, THEIR USE AS MTOR KINASE AND PI3 KINASE INHIBITORS, AND THEIR SYNTHESES” (priority 2008, published 2009).

What all share (type): biochemical
The target in one test is PI3K-alpha (Homo sapiens, UniProt P42336). Briefly: PI3K-alpha fluorescence polarization assay. The conditions noted are these: read-out: PI3Kα Avg. IC50. (Polarisation of emitted light reports the rotation of a fluorescent probe.)
The target in another test is PI3K-gamma (Homo sapiens, UniProt P48736). As to the kind of experiment: PI3K-gamma fluorescence polarization assay. The conditions noted are these: PI3Kγ Avg. IC50. In a few lines:
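Each isoform (5 ng) phosphorylated 2.5 μM diC8-PI(4,5)P2 at 25 μM ATP for one hour at 25° C in the presence of inhibitor. Reactions were then stopped with EDTA, and product was detected by fluorescence polarization using a GST-GRP1 PH domain and a BODIPY-TMR-labelled IP4 tracer.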

The target in the next test is T1, human TOR (Homo sapiens, UniProt P42345).
T1 construct: FLAG
Briefly: mTOR enzyme assay (DELFIA, His6-S6K substrate). The following applies: read-out: mTOR Kinase Avg. IC50.

Structures are written as SMILES.

PI3K-alpha, sequence (P42336 whole entry, species assumed): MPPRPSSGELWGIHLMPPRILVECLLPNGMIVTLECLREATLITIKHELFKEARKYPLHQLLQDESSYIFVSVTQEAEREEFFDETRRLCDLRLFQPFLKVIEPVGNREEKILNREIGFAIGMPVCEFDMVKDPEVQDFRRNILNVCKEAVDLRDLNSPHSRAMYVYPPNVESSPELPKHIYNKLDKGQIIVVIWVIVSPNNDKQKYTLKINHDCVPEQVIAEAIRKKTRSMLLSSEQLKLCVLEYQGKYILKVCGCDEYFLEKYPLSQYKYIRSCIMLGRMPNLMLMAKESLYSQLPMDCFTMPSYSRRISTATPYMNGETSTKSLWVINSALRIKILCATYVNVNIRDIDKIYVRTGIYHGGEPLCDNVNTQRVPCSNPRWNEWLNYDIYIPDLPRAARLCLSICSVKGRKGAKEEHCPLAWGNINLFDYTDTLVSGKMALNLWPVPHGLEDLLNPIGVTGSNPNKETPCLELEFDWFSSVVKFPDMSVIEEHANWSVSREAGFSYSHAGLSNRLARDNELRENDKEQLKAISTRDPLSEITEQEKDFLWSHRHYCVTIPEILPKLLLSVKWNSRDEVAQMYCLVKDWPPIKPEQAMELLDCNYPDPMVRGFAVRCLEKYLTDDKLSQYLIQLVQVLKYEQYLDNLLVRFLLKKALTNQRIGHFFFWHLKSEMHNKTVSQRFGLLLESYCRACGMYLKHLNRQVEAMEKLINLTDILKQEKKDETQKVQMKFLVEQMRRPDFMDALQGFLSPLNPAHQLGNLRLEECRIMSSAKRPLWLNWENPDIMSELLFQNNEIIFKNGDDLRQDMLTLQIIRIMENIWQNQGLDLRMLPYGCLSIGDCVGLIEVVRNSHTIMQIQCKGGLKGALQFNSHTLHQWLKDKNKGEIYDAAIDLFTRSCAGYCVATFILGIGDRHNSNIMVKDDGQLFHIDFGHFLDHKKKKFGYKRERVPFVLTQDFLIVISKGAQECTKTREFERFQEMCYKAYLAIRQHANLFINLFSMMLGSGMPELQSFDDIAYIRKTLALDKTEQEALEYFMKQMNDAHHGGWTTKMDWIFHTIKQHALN
PI3K-alpha, sequence (P27986 whole entry partner, species assumed): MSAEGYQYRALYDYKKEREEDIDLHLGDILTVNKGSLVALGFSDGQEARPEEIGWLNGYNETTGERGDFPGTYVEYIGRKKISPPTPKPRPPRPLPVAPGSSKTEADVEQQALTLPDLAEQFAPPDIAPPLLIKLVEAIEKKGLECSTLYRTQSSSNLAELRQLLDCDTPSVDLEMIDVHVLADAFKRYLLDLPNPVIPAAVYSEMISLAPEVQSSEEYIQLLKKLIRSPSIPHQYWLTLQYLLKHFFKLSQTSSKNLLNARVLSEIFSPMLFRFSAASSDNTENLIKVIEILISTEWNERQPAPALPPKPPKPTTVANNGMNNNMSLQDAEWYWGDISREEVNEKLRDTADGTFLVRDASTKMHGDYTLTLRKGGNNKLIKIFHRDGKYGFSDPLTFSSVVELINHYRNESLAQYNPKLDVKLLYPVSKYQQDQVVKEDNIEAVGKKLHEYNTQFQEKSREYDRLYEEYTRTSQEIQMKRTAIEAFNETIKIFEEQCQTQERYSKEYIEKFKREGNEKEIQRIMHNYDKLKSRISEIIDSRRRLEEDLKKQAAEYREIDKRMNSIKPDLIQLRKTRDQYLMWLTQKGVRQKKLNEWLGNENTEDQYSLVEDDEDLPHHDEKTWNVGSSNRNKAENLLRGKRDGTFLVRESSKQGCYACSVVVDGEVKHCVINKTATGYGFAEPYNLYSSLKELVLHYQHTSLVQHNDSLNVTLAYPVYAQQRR
PI3K-gamma, sequence (P48736 whole entry, species assumed, the tested form may be a part, canonical isoform): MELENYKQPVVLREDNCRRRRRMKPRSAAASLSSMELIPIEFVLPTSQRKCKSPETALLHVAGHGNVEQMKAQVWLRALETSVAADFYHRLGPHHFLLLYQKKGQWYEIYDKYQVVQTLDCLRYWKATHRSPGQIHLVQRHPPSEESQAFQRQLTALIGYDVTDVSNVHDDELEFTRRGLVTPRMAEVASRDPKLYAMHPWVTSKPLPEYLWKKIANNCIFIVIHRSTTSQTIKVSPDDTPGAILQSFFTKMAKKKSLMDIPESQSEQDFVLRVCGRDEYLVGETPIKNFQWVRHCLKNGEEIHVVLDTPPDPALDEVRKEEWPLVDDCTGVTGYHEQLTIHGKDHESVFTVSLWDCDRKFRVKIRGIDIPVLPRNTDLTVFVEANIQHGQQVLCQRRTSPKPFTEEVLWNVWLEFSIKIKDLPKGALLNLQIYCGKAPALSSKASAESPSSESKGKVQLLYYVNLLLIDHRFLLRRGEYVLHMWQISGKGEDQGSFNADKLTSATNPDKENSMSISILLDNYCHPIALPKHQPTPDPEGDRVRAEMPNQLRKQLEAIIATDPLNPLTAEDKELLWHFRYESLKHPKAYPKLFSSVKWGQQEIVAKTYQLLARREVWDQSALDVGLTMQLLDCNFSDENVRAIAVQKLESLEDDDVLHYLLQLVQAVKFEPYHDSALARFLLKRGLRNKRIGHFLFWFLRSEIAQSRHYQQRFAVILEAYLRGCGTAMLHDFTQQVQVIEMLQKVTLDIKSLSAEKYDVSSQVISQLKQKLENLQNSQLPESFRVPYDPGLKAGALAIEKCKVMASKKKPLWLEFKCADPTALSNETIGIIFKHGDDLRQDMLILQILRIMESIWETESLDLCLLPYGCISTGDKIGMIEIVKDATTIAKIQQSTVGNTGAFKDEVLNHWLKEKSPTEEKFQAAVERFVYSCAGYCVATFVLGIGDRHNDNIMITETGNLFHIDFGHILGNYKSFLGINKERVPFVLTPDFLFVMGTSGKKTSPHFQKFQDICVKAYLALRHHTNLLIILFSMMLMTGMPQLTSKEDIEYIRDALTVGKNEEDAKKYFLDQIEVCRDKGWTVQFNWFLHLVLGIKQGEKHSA

Broadly, the IC50 is the concentration that inhibits the measured activity by half. For `CN(C)Cc1ccc(-c2ccc(-c3cccc4c3c(/C=C3\Oc5cc(O)cc(O)c5C3=O)cn4C)cc2)cc1` [Example 301, (2Z)-2-[(4-{4′-[(Dimethylamino)methyl]biphenyl-4-yl}-1-methyl-1H-indol-3-yl)methylene]-4,6-dihydroxy-1-benzofuran-3(2H)-one], the IC50 came out at 1230 nM on PI3K-alpha, 2310 nM at PI3K-gamma and 125 nM at human TOR.
For `O=C1C(=Cc2c[nH]c3cccc(Cl)c23)Oc2cc(O)cc(O)c21` [Example 171, 2-[(4-chloro-1H-indol-3-yl)methylene]-4,6-dihydroxy-1-benzofuran-3(2H)-one], the figures for the IC50 at PI3K-alpha, against PI3K-gamma and on human TOR were 2030 nM, more than 10000 nM and more than 20000 nM, respectively.
In the case of `Cn1cc(/C=C2\Oc3cc(O)cc(O)c3C2=O)c2c(-c3ccc([N+](=O)[O-])cc3)cccc21` [Example 420, (2Z)-4,6-Dihydroxy-2-{[1-methyl-4-(4-nitrophenyl)-1H-indol-3-yl]methylene}-1-benzofuran-3(2H)-one], the IC50 is 708 nM at PI3K-alpha, more than 10000 nM against PI3K-gamma and 31.5 nM at human TOR.
For the molecule `O=C1C(=Cc2c[nH]c3c(Cl)cccc23)Oc2cc(O)cc(O)c21` [Example 173, 2-[(7-chloro-1H-indol-3-yl)methylene]-4,6-dihydroxy-1-benzofuran-3(2H)-one], the results for the half-maximal inhibitory concentration (IC50) on PI3K-alpha, on PI3K-gamma and at human TOR were 766 nM, more than 10000 nM and 17000 nM, respectively.
On to `COc1cc(F)c2[nH]c(-c3c(C)nn(C)c3C)c(/C=C3\Oc4ccc(NC(=O)Nc5ccc(C(=O)N6CCN(C)C(C)C6)cc5)cc4C3=O)c2c1` (stereo not drawn) [Compound 730, 1-{4-[(3,4-dimethylpiperazin-1-yl)carbonyl]phenyl}-3-[(2Z)-2-{[7-fluoro-5-methoxy-2-(1,3,5-trimethyl-1H-pyrazol-4-yl)-1H-indol-3-yl]methylidene}-3-oxo-2,3-dihydro-1-benzofuran-5-yl]urea], for which the results for the half-inhibitory concentration (IC50) at PI3K-alpha, at PI3K-gamma and on human TOR were 0.65 nM, 1.9 nM and 3 nM, respectively.
`CC(=O)c1ccc(-c2cccc3c2c(/C=C2\Oc4cc(O)cc(O)c4C2=O)cn3C)cc1` [Example 372, (2Z)-2-{[4-(4-Acetylphenyl)-1-methyl-1H-indol-3-yl]methylene}-4,6-dihydroxy-1-benzofuran-3(2H)-one]: the IC50 at PI3K-alpha worked out at 738 nM; at PI3K-gamma, 3000 nM; at human TOR, 26 nM.
As for `COc1cc(F)c2[nH]c(-c3c(C)nn(C)c3C)c(/C=C3\Oc4ccc(NC(=O)Nc5ccc(C(=O)NCCN(C)C)cc5)cc4C3=O)c2c1` [Compound 733, N-[2-(dimethylamino)ethyl]-4-({[(2Z)-2-{[7-fluoro-5-methoxy-2-(1,3,5-trimethyl-1H-pyrazol-4-yl)-1H-indol-3-yl]methylidene}-3-oxo-2,3-dihydro-1-benzofuran-5-yl]carbamoyl}amino)benzamide], the IC50 at PI3K-alpha was 0.3 nM; against PI3K-gamma, 3 nM; on human TOR, less than 1 nM.
Turning to `CC(C)Oc1ccc(-c2cccc3c2c(/C=C2\Oc4cc(O)cc(O)c4C2=O)cn3C)cc1` [Example 381, (2Z)-4,6-dihydroxy-2-{[4-(4-isopropoxyphenyl)-1-methyl-1H-indol-3-yl]methylene}-1-benzofuran-3(2H)-one], the IC50 at PI3K-alpha is 2740 nM; against PI3K-gamma it was 3950 nM; at human TOR, 180 nM.
`COc1ccc2[nH]c(C3CCCCC3)c(/C=C3\Oc4ccc(NC(=O)Nc5ccc(C(=O)N6CCN(C)CC6)cc5)cc4C3=O)c2c1` [Compound 644, 1-{(2Z)-2-[(2-cyclohexyl-5-methoxy-1H-indol-3-yl)methylene]-3-oxo-2,3-dihydro-1-benzofuran-5-yl}-3-{4-[(4-methylpiperazin-1-yl)carbonyl]phenyl}urea]: the IC50 on PI3K-alpha came out at 0.3 nM; at PI3K-gamma, 2.5 nM; on human TOR, 33 nM.
With `Cn1cc(/C=C2\Oc3cc(O)cc(O)c3C2=O)c2c(-c3cnn(CCN4CCOCC4)c3)cccc21` [Example 403, (2Z)-4,6-Dihydroxy-2-({1-methyl-4-[1-(2-morpholin-4-ylethyl)-1H-pyrazol-4-yl]-1H-indol-3-yl}methylene)-1-benzofuran-3(2H)-one], the IC50 at PI3K-alpha was 1640 nM; on PI3K-gamma, 7710 nM; at human TOR it was 123 nM.
As for `CNC(=O)Nc1ccc2c(c1)C(=O)/C(=C/c1c(-c3cccc(CN(C)C)c3)[nH]c3ccc(OC)cc13)O2` [Compound 629, 1-{(2Z)-2-[(2-{3-[(dimethylamino)methyl]phenyl}-5-methoxy-1H-indol-3-yl)methylidene]-3-oxo-2,3-dihydro-1-benzofuran-5-yl}-3-methylurea], the IC50 at PI3K-alpha was 1.3 nM; against PI3K-gamma it was 25.5 nM; on human TOR, 50 nM.
Turning to `COc1ccc2[nH]c(-c3c(C)nn(C)c3C)c(/C=C3\Oc4ccc(NC(=O)Nc5ccc(N(C)C(=O)CCN(C)C)cc5)cc4C3=O)c2c1` [Compound 696, N-(4-{[(2-{[5-methoxy-2-(1,3,5-trimethyl-1H-pyrazol-4-yl)-1H-indol-3-yl]methylidene}-3-oxo-2,3-dihydro-1-benzofuran-5-yl)carbamoyl]amino}phenyl)-N,N3,N3-trimethyl-b-alaninamide], the 50% inhibitory concentration (IC50) on PI3K-alpha was found to be 3 nM; at PI3K-gamma it was 48 nM; at human TOR, 5 nM.
Take `COc1ccc2c(c1)c(/C=C1\Oc3c(ccc(O)c3Cl)C1=O)c(C)n2CCCN(C)C` [Example 361, (2Z)-7-Chloro-2-({1-[3-(dimethylamino)propyl]-5-methoxy-2-methyl-1H-indol-3-yl}methylene)-6-hydroxy-1-benzofuran-3(2H)-one]: the IC50 on PI3K-alpha was 306 nM; against PI3K-gamma it was 3440 nM; at human TOR, more than 800 nM.
For the molecule `Cc1c(C=C2Oc3cc(O)cc(O)c3C2=O)c2cc(Cl)ccc2n1CCCC#N` [Example 238, 4-{5-chloro-3-[(4,6-dihydroxy-3-oxo-1-benzofuran-2(3H)-ylidene)methyl]-2-methyl-1H-indol-1-yl}butanenitrile], the results for the IC50 on PI3K-alpha, against PI3K-gamma and on human TOR were 288 nM, 2820 nM and 360 nM, respectively.
Consider `COc1ccc2[nH]c(-c3c(C)nn(C)c3C)c(/C=C3\Oc4ccc(NC(=O)Nc5ccc(NC(=O)CCN(C)C)cc5)cc4C3=O)c2c1` [Compound 691, N-[4-({[(2Z)-2-{[5-methoxy-2-(1,3,5-trimethyl-1H-pyrazol-4-yl)-1H-indol-3-yl]methylidene}-3-oxo-2,3-dihydro-1-benzofuran-5-yl]carbamoyl}amino)phenyl]-N3,N3-dimethyl-b-alaninamide], for which the IC50 on PI3K-alpha was found to be 0.25 nM; against PI3K-gamma, 2.1 nM; at human TOR, 1 nM.
As for `COc1ccc2c(c1)c(/C=C1\Oc3ccc(NC(=O)Nc4cccnc4)cc3C1=O)c(C1CCCC1)n2CCN1CCN(C)CC1` [Compound 638, 1-[(2Z)-2-({2-cyclopentyl-5-methoxy-1-[2-(4-methylpiperazin-1-yl)ethyl]-1H-indol-3-yl}methylene)-3-oxo-2,3-dihydro-1-benzofuran-5-yl]-3-pyridin-3-ylurea], the IC50 at PI3K-alpha was found to be 3 nM; against PI3K-gamma, 214 nM; on human TOR, 8 nM.
For `CN1CCN(CCn2cc(/C=C3\Oc4cc(O)cc(O)c4C3=O)c3c(-c4ccc(N(C)C)cc4)cccc32)CC1` [Example 438, (2Z)-2-({4-[4-(Dimethylamino)phenyl]-1-[2-(4-methylpiperazin-1-yl)ethyl]-1H-indol-3-yl}methylene)-4,6-dihydroxy-1-benzofuran-3(2H)-one], in that order: 2980 nM, 9000 nM and more than 20000 nM.
With `Cn1cc(C=C2Oc3cc(O)cc(O)c3C2=O)c2cc(Br)ccc21` [Example 248, 2-[(5-bromo-1-methyl-1H-indol-3-yl)methylene]-4,6-dihydroxy-1-benzofuran-3(2H)-one], the results for the IC50 at PI3K-alpha, at PI3K-gamma and at human TOR were 1040 nM, more than 10000 nM and more than 20000 nM, respectively.
Consider `O=C1C(=Cc2c[nH]c3c(O)cccc23)Oc2cc(O)cc(O)c21` [Example 246, 4,6-dihydroxy-2-[(7-hydroxy-1H-indol-3-yl)methylene]-1-benzofuran-3(2H)-one], for which the results for the IC50 on PI3K-alpha, against PI3K-gamma and on human TOR were 1030 nM, more than 10000 nM and 17000 nM, respectively.
On the same counts, the results for `Cn1cc(/C=C2\Oc3cc(O)cc(O)c3C2=O)c2c(-c3cccc(O)c3)cccc21` [Example 390, (2Z)-4,6-Dihydroxy-2-{[4-(3-hydroxyphenyl)-1-methyl-1H-indol-3-yl]methylene}-1-benzofuran-3(2H)-one] are 1120 nM, 2040 nM and 90 nM.
As to `COc1ccc2c(c1)c(C=C1Oc3c(ccc(O)c3O)C1=O)c(C)n2C` [Example 90, 6,7-dihydroxy-2-[(5-methoxy-1,2-dimethyl-1H-indol-3-yl)methylene]-1-benzofuran-3(2H)-one], the IC50 at PI3K-alpha was 202 nM; at PI3K-gamma, 1220 nM; at human TOR, 1590 nM.
As to `Cn1cc(/C=C2\Oc3cc(O)cc(O)c3C2=O)c2c(-c3ccc(-c4ccc(CN)cc4)cc3)cccc21` [Example 300, (2Z)-2-({4-[4′-(Aminomethyl)biphenyl-4-yl]-1-methyl-1H-indol-3-yl}methylene)-4,6-dihydroxy-1-benzofuran-3(2H)-one], the IC50 came out at 2860 nM at PI3K-alpha, 9500 nM at PI3K-gamma and 132 nM on human TOR.
On to `COc1ccc2c(c1)c(/C=C1\Oc3cc(O)ccc3C1=O)c(C)n2CCN1CCCCCC1` [Example 470, (2Z)-2-{[1-(2-Azepan-1-ylethyl)-5-methoxy-2-methyl-1H-indol-3-yl]methylene}-6-hydroxy-1-benzofuran-3(2H)-one], for which the IC50 at PI3K-alpha was 35.5 nM; at PI3K-gamma, 656 nM; at human TOR it was 2300 nM.
